Target: T1, human TRPC6 (Homo sapiens, UniProt Q9Y210)
T1 construct: expressed in transfected cells
T1 sequence (Q9Y210 1-931): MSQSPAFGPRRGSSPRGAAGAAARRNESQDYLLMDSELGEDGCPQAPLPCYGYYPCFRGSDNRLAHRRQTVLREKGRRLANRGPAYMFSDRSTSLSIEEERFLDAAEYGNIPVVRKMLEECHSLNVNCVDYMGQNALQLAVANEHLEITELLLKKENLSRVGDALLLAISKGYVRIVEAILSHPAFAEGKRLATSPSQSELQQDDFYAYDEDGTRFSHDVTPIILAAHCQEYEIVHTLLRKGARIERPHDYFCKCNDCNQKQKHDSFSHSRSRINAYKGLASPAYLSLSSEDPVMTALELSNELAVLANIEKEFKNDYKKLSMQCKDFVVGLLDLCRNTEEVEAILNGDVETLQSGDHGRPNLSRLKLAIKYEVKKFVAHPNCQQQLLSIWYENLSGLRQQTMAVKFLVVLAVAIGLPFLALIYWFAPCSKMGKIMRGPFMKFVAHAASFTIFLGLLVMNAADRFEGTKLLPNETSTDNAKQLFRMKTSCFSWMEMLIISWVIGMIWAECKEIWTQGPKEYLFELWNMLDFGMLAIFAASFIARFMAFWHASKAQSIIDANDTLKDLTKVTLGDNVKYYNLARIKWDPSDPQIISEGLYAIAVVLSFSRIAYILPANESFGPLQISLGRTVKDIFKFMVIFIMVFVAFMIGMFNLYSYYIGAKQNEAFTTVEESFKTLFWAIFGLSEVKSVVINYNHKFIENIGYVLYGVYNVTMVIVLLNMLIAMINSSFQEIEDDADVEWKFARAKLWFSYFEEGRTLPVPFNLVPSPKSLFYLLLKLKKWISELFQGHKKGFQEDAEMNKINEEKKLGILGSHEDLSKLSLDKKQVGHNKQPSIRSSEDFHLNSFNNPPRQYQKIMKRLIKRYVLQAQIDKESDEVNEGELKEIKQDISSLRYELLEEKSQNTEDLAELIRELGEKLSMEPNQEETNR
Assay: TRPC6 calcium flux assay (FLIPR, OAG-stimulated calcium influx)
Format: cell-based
Conditions: HEK293 cells stably transfected with human TRPC6, read-out: hTRPC6 Potency
Protocol: Biological Example 1 TRPC6 Calcium Flux Assay
Potency of TRPC6 (Transient receptor potential channel family C6) inhibitors were measured by their inhibition of Calcium influx trigged by […] (1-Oleoyl-2-acetyl-sn-glycerol, Millipore Sigma, O6754) stimulation on HEK293 cells stablely transfected with human TRPC6 using a FLIPR tetra system. Cells were grown in a humidified environment at 37° C. under 5% CO2 using the growth medium with the following selective reagents (Dulbecco's Modified Eagle's Medium (DMEM) high glucose, 10% Fetal Bovine Serum, 1×PSGlu (penicillin-streptomycin glutamine), 1×NEAA (Non-essential amino acid), 1× Na Pyruvate and 200 ug/ml Hygromycin). For general passage, cells were grown to 70-90% confluency; the media was removed, and the cells were gently washed 2 times with calcium and magnesium free PBS (phosphate-buffered saline). Trypsin (3 mL) was applied for 5 minutes at 37° C. The cells were dislodged by rapping flask against base of a hand and 7 mL of growth medium was added to deactivate trypsin and re-suspend cells. The usual splitting schedule was 1:5 every 2-3 days.
Cells were plated the day before the assay, plating cell density is 1.0-1.5×10^4/25 μl/well in poly-D-lysine (PDL) coated 384-well plates using either multichannel pipettes or multidrop. These cells were first incubated with fluorescence dye at room temperature for 90-120 minutes after they were grown on PDL-coated 384-well black plates overnight (Dye loading buffer 10 ml example: 9 mL assay buffer, 1 mL, 10×PBX signal enhancer, 10 μL Calcium indicator). The cells were incubated with a dose of compounds for 25 minutes before being stimulated with TRPC6 agonist OAG. The OAG solution was prepared by adding OAG into assay buffer (Ca ringer solution base: 10 mM HEPES (4-(2-hydroxyethyl)-1-piperazine-ethanesulfonic acid), 4 mM MgCl2, 120 mM NaCl, 5 mM KCl, pH=7.2 @25° C.)+0.1% BSA+2 mM CaCl2) to the concentration of 0.2 mM/2% DMSO, which achieves a final on cell concentration of 50 uM/0.5% DMSO. 12.5 uL OAG mixture was added and the activation of the TRPC6 channel was measured by the change of intracellular Calcium levels on FLIPR terra system.
Data was acquired by measuring the fluorescent peak signal subtracted from the background during the 180 second imaging frame. Each data point is further normalized to 100% of OAG triggered signal vs. buffer. Table 16 provides the IC50 for each compound, which data is obtained by plotting peak signal over the compound dose.

SMILES | IC50 [nM]
N#Cc1ccc(Cn2c(N3CCC[C@H](N)C3)nc3cc(Cl)ccc32)nc1 [Example 2, (S)-6-((2-(3-aminopiperidin-1-yl)-5-chloro-1H-benzo[d]imidazol-1-yl)methyl)nicotinonitrile] | 3.2
N#Cc1ccc(Cn2c(N3CCC[C@H](N)C3)nc3c(Cl)cccc32)nc1 [Example 3, (S)-6-((2-(3-aminopiperidin-1-yl)-4-chloro-1H-benzo[d]imidazol-1-yl)methyl)nicotinonitrile] | 1.99
N#Cc1ccc(Cn2c(N3CC[C@@H](F)[C@H](N)C3)nc3c(Cl)cccc32)nc1 [Example 4] | 1.67
N#Cc1ccc(Cn2c(N3CC[C@H](F)[C@H](N)C3)nc3ccc(Cl)cc32)nc1 [Example 8, 6-((2-((3R,4S)-3-amino-4-fluoropiperidin-1-yl)-6-chloro-1H-benzo[d]imidazol-1-yl)methyl)nicotinonitrile] | 0.283
N#Cc1ccc(Cn2c(N3CC[C@H](F)[C@H](N)C3)nc3cc(Cl)ccc32)nc1 [Example 9, 6-((2-((3R,4S)-3-amino-4-fluoropiperidin-1-yl)-5-chloro-1H-benzo[d]imidazol-1-yl)methyl)nicotinonitrile] | 1.61
N#Cc1ccc(Cn2c(N3CCC(F)(F)[C@H](N)C3)nc3c(Cl)cccc32)nc1 [Example 10, (R)-6-((2-(3-amino-4,4-difluoropiperidin-1-yl)-4-chloro-1H-benzo[d]imidazol-1-yl)methyl)nicotinonitrile] | 6.06
N#Cc1ccc(Cn2c(N3CC[C@@H](F)[C@H](N)C3)nc3c(C#N)cccc32)nc1 [Example 11, 2-((3R,4R)-3-amino-4-fluoropiperidin-1-yl)-1-((5-cyanopyridin-2-yl)methyl)-1H-benzo[d]imidazole-4-carbonitrile] | 1.79
N#Cc1ccc(Cn2c(N3CCC(F)(F)[C@H](N)C3)nc3ccc(Cl)cc32)nc1 [Example 12, (R)-6-((2-(3-amino-4,4-difluoropiperidin-1-yl)-6-chloro-1H-benzo[d]imidazol-1-yl)methyl)nicotinonitrile] | 0.285
N#Cc1ccc(Cn2c(N3CCC(F)(F)[C@H](N)C3)nc3cc(Cl)ccc32)nc1 [Example 13, (R)-6-((2-(3-amino-4,4-difluoropiperidin-1-yl)-5-chloro-1H-benzo[d]imidazol-1-yl)methyl)nicotinonitrile] | 6.87
N#Cc1ccc(Cn2c(N3CC[C@@H](F)[C@H](N)C3)nc3cc(C(F)(F)F)ccc32)nc1 [Example 15, 6-((2-((3R,4R)-3-amino-4-fluoropiperidin-1-yl)-5-(trifluoromethyl)-1H-benzo[d]imidazol-1-yl)methyl)nicotinonitrile] | 4.39
N#Cc1ccc(Cn2c(N3C[C@@H](N)CC(F)(F)C3)nc3ccccc32)nc1 [Example 17, (S)-6-((2-(5-amino-3,3-difluoropiperidin-1-yl)-1H-benzo[d]imidazol-1-yl)methyl)nicotinonitrile] | 118
N#Cc1ccc(Cn2c(N3CC[C@@H](F)[C@H](N)C3)nc3cc(C(F)(F)F)c(F)cc32)nc1 [Example 21, 6-((2-((3R,4R)-3-amino-4-fluoropiperidin-1-yl)-6-fluoro-5-(trifluoromethyl)-1H-benzo[d]imidazol-1-yl)methyl)nicotinonitrile] | 0.658
N#Cc1ccc(Cn2c(N3CC[C@@H]4CCN[C@H]4C3)nc3ccccc32)nc1 [Example 23, 6-((2-((3aS,7aR)-hexahydro-1H-pyrrolo[2,3-c]pyridin-6(2H)-yl)-1H-benzo[d]imidazol-1-yl)methyl)nicotinonitrile] | > 3750
N#Cc1ccc(Cn2c(N3CCC4CCN[C@@H]4C3)nc3ccccc32)nc1 (stereo partly drawn) [Example 25, 6-((2-((3aS,7aS)-hexahydro-1H-pyrrolo[2,3-c]pyridin-6(2H)-yl)-1H-benzo[d]imidazol-1-yl)methyl)nicotinonitrile] | 210
N#Cc1ccc(Cn2c(N3CCC4CCN[C@H]4C3)nc3ccccc32)nc1 (stereo partly drawn) [Example 26, 6-((2-((3aS,7aR)-hexahydro-1H-pyrrolo[2,3-c]pyridin-6(2H)-yl)-1H-benzo[d]imidazol-1-yl)methyl)nicotinointrile] | 161

Second part, the compound after the results:

IC50 [nM] | SMILES
2.92 | N#Cc1ccc(Cn2c(N3CC[C@H](F)[C@H](N)C3)nc3c(Cl)cccc32)nc1 [Example 5]
0.4 | N#Cc1ccc(Cn2c(N3CC[C@@H](F)[C@H](N)C3)nc3ccc(Cl)cc32)nc1 [Example 6, 6-((2-((3R,4R)-3-amino-4-fluoropiperidin-1-yl)-6-chloro-1H-benzo[d]imidazol-1-yl)methyl)nicotinonitrile]
1.17 | N#Cc1ccc(Cn2c(N3CC[C@@H](F)[C@H](N)C3)nc3cc(Cl)ccc32)nc1 [Example 7, 6-((2-((3R,4R)-3-amino-4-fluoropiperidin-1-yl)-5-chloro-1H-benzo[d]imidazol-1-yl)methyl)nicotinonitrile]
0.377 | N#Cc1ccc(Cn2c(N3CC[C@@H](F)[C@H](N)C3)nc3ccc(C(F)(F)F)cc32)nc1 [Example 14, 6-((2-((3R,4R)-3-amino-4-fluoropiperidin-1-yl)-6-(trifluoromethyl)-1H-benzo[d]imidazol-1-yl)methyl)nicotinonitrile]
224 | N#Cc1ccc(Cn2c(N3CC[C@H](F)[C@@H](N)C3)nc3ccccc32)nc1 [Example 16, 6-((2-((3S,4S)-3-amino-4-fluoropiperidin-1-yl)-1H-benzo[d]imidazol-1-yl)methyl)nicotinonitrile]
7.85 | N#Cc1ccc(Cn2c(N3CC[C@@H](F)[C@H](N)C3)nc3c(C#N)cc(F)cc32)nc1 [Example 18, 2-((3R,4R)-3-amino-4-fluoropiperidin-1-yl)-1-((5-cyanopyridin-2-yl)methyl)-6-fluoro-1H-benzo[d]imidazole-4-carbonitrile]
0.956 | N#Cc1ccc(Cn2c(N3CC[C@@H](F)[C@H](N)C3)nc3ccc(OC(F)(F)F)cc32)nc1 [Example 19, 6-((2-((3R,4R)-3-amino-4-fluoropiperidin-1-yl)-6-(trifluoromethoxy)-1H-benzo[d]imidazol-1-yl)methyl)nicotinonitrile]
1.92 | N#Cc1ccc(Cn2c(N3CC[C@@H](F)[C@H](N)C3)nc3cc(OC(F)(F)F)ccc32)nc1 [Example 20, 6-((2-((3R,4R)-3-amino-4-fluoropiperidin-1-yl)-5-(trifluoromethoxy)-1H-benzo[d]imidazol-1-yl)methyl)nicotinonitrile]
1.62 | N#Cc1ccc(Cn2c(N3CC[C@@H](F)[C@H](N)C3)nc3cc(F)c(C(F)(F)F)cc32)nc1 [Example 22, 6-((2-((3R,4R)-3-amino-4-fluoropiperidin-1-yl)-5-fluoro-6-(trifluoromethyl)-1H-benzo[d]imidazol-1-yl)methyl)nicotinonitrile]
145 | N#Cc1ccc(Cn2c(N3CC[C@@H]4CCN[C@@H]4C3)nc3ccccc32)nc1 [Example 24, 6-((2-((3aS,7aS)-hexahydro-1H-pyrrolo[2,3-c]pyridin-6(2H)-yl)-1H-benzo[d]imidazol-1-yl)methyl)nicotinonitrile]

Source: US11332459B2 (TEIJIN PHARMA LIMITED, priority 2017, dated 2022)
